# How the values were obtained:
# Type in all cases: biochemical
# MKK6 = molecular target: T1, MKK6 (Homo sapiens, UniProt P52564); experiment: Kinase profiling MKK6; settings: 100 micromolar inhibitor concentration, 100 is no change; for remaining activity at 100 µM: read-out: residual kinase activity, MKK6
# T1 sequence (P52564 1-334): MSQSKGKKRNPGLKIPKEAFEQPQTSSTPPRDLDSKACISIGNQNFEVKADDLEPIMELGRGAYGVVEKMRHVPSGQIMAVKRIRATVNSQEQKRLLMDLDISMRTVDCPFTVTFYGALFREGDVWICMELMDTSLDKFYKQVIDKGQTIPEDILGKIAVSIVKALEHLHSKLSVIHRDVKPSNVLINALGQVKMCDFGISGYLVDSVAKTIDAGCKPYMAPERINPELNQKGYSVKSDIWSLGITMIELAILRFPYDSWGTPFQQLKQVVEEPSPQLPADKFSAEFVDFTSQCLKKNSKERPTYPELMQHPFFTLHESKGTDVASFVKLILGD
# Excerpt: (§1) Any value less that 25 is considered to be highly significant inhibition.
# ERK2 = ERK2 (Homo sapiens, UniProt P28482); experiment: Kinase profiling ERK2; settings: 100 micromolar inhibitor concentration, 100 is no change; for remaining activity at 100 µM: read-out: residual kinase activity, ERK2
# Chain of ERK2 (P28482 whole entry, species assumed): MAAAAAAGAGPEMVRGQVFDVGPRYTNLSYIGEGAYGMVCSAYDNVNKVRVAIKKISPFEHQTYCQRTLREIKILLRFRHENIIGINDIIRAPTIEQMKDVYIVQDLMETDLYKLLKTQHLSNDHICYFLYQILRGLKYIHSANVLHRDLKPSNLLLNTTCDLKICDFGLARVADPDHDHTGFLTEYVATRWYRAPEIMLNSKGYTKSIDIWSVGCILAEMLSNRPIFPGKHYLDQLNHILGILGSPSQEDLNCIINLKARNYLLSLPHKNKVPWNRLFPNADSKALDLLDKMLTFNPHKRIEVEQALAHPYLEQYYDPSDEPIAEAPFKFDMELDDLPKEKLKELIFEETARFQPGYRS
# Excerpt: as §1
# JNK2 = JNK2 (Homo sapiens, UniProt P45984); experiment: Kinase profiling JNK2; settings: 100 micromolar inhibitor concentration, 100 is no change; for remaining activity at 100 µM: read-out: residual kinase activity, JNK2
# Chain of JNK2 (P45984 whole entry, species assumed): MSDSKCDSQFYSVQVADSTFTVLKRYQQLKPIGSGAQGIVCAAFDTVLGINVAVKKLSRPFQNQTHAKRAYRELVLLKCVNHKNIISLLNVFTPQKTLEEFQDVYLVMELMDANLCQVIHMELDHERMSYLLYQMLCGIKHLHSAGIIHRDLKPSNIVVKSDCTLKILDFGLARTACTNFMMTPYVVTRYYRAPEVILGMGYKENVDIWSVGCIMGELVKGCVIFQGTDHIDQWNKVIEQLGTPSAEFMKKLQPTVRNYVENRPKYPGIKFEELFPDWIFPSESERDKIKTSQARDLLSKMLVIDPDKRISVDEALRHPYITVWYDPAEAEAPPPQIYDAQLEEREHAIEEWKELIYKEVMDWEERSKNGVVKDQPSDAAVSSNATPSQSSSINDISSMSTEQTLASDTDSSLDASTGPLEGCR
# Excerpt: as §1
# RSK1 = RSK1 (Homo sapiens, UniProt Q15418); experiment: Kinase profiling RSK1; settings: 100 micromolar inhibitor concentration, 100 is no change; for remaining activity at 100 µM: read-out: residual kinase activity, RSK1
# Chain of RSK1 (Q15418 whole entry, species assumed): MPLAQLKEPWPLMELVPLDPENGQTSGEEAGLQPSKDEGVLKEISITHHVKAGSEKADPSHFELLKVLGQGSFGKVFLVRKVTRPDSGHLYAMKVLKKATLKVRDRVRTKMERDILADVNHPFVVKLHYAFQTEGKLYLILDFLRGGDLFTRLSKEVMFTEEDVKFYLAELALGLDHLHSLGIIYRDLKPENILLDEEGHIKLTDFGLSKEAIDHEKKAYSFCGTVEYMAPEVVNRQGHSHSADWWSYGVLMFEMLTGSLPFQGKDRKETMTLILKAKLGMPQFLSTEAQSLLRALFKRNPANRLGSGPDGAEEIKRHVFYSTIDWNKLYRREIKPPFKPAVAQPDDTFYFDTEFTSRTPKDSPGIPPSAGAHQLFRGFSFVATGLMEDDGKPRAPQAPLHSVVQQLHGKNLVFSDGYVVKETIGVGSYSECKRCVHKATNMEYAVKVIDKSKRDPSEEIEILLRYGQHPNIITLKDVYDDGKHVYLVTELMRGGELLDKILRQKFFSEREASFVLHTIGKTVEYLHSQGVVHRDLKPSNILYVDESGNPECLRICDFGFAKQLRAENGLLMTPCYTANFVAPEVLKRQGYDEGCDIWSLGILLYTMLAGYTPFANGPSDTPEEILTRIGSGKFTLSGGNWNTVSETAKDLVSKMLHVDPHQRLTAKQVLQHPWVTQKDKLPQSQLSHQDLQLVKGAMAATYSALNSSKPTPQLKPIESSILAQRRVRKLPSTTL
# Excerpt: as §1
# ROCK 2 = ROCK 2 (Homo sapiens, UniProt O75116); experiment: Kinase profiling ROCK 2; settings: 100 micromolar inhibitor concentration, 100 is no change; for remaining activity at 100 µM: read-out: residual kinase activity, ROCK 2
# Chain of ROCK 2 (O75116 whole entry, species assumed): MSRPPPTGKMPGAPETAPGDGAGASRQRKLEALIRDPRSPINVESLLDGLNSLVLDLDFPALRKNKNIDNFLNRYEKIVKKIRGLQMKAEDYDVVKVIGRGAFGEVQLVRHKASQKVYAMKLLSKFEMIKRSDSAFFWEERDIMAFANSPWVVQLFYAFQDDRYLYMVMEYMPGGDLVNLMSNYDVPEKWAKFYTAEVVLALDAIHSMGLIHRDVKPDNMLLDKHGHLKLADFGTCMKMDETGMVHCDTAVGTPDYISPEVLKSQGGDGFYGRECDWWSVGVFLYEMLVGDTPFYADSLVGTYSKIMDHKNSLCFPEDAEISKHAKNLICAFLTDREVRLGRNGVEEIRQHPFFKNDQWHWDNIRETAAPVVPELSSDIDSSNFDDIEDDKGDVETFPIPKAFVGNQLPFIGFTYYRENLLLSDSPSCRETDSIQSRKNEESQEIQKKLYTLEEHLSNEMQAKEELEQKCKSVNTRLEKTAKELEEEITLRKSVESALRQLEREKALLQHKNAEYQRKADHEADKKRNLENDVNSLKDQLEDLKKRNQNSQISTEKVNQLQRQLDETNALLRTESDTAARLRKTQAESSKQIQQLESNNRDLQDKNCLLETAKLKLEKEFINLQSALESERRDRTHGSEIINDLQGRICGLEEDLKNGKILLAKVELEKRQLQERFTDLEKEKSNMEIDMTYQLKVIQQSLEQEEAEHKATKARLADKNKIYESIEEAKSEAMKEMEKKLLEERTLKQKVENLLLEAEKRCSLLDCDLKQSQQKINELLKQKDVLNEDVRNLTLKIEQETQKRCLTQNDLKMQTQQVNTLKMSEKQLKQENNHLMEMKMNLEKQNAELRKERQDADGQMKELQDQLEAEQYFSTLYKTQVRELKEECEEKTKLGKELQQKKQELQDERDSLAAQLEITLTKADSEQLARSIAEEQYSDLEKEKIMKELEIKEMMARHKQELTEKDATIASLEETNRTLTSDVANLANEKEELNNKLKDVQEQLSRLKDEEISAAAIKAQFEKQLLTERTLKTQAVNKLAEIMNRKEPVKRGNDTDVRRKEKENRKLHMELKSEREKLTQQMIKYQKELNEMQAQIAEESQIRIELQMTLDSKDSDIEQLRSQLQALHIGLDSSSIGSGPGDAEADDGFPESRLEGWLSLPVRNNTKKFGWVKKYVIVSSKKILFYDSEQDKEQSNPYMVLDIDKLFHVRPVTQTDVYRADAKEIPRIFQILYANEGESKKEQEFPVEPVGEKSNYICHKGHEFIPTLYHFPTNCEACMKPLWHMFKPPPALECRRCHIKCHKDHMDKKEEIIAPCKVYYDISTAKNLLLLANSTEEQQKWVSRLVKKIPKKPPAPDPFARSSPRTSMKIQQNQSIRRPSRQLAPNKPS
# Excerpt: as §1
# PRK2 = PRK2 (Homo sapiens, UniProt Q16513); experiment: Kinase profiling PRK2; settings: 100 micromolar inhibitor concentration, 100 is no change; for remaining activity at 100 µM: read-out: residual kinase activity, PRK2
# Chain of PRK2 (Q16513 whole entry, species assumed): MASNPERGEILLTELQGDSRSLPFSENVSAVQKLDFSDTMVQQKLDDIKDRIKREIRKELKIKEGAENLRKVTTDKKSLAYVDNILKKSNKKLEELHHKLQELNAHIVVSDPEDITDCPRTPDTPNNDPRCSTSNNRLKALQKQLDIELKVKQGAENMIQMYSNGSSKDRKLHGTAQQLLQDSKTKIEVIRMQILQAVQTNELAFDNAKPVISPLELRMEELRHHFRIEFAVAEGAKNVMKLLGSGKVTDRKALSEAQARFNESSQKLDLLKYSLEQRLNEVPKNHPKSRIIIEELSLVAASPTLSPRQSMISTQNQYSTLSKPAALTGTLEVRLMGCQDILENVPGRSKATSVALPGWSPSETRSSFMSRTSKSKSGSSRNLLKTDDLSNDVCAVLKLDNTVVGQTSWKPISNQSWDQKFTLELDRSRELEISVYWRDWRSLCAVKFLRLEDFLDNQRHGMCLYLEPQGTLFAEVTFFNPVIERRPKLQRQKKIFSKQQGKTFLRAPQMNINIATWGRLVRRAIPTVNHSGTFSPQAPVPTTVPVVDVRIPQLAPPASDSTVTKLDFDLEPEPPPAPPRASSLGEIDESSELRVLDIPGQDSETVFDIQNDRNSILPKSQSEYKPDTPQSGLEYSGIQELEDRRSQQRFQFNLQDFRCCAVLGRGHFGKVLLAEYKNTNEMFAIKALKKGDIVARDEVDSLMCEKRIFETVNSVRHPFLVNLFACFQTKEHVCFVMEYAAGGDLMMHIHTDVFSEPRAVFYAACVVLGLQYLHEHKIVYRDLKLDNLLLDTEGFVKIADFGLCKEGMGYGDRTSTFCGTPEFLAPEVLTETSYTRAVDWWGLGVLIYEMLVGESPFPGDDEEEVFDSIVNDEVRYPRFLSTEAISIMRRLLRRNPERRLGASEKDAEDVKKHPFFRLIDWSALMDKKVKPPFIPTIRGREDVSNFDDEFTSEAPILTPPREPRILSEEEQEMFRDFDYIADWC
# Excerpt: as §1
# PKCγ = PKCγ (Homo sapiens, UniProt P05129); experiment: Kinase profiling PKCγ; settings: 100 micromolar inhibitor concentration, 100 is no change; for remaining activity at 100 µM: read-out: residual kinase activity, PKCγ
# Excerpt: as §1
# PKD1 = molecular target: T2, PKD1 (Homo sapiens, UniProt Q15139); experiment: Kinase profiling PKD1; settings: 100 micromolar inhibitor concentration, 100 is no change; for remaining activity at 100 µM: read-out: residual kinase activity, PKD1
# T2 sequence (Q15139 1-912): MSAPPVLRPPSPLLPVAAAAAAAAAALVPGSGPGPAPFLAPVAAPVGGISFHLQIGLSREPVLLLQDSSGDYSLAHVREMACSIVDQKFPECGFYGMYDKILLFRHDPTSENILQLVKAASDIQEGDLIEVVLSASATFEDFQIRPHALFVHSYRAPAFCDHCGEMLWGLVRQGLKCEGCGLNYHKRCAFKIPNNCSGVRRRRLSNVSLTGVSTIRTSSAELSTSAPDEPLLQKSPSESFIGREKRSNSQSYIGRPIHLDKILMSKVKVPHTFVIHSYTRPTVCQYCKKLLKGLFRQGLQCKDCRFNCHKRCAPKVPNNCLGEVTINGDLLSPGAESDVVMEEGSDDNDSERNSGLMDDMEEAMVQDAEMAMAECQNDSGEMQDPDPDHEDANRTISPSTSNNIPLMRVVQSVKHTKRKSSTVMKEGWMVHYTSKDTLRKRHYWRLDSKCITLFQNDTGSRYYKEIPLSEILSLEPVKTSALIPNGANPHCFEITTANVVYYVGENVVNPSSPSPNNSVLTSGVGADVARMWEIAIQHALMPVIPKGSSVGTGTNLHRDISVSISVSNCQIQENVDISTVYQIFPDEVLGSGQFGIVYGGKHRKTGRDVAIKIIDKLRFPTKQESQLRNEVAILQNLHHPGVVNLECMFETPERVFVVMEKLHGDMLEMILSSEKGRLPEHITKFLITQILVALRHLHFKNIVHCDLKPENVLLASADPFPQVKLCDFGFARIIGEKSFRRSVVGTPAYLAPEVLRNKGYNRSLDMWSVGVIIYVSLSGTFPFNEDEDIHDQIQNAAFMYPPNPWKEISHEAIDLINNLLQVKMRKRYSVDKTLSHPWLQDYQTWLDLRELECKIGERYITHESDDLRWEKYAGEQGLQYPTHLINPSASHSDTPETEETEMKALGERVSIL
# Excerpt: as §1
# STK33 = STK33 (Homo sapiens, UniProt Q9BYT3); experiment: Kinase profiling STK33; settings: 100 micromolar inhibitor concentration, 100 is no change; for remaining activity at 100 µM: read-out: residual kinase activity, STK33
# Chain of STK33 (Q9BYT3 whole entry, species assumed): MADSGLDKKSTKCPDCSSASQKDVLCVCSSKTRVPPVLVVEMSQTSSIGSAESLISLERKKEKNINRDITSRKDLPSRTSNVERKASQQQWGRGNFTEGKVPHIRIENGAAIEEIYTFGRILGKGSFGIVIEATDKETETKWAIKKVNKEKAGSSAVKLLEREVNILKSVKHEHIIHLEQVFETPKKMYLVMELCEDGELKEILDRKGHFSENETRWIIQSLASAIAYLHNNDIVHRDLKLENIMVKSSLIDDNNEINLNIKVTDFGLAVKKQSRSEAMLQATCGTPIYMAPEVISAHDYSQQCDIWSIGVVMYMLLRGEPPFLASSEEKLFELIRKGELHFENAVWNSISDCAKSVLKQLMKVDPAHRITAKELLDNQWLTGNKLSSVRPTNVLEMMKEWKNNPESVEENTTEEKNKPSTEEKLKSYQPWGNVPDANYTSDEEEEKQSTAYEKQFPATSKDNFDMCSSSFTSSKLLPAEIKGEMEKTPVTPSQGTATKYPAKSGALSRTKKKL
# Excerpt: as §1
# AMPK = experiment: Kinase profiling AMPK; settings: 100 micromolar inhibitor concentration; 100 is no change
# Excerpt: as §1
# NEK6 = NEK6 (Homo sapiens, UniProt Q9HC98); experiment: Kinase profiling NEK6; settings: 100 micromolar inhibitor concentration, 100 is no change; for remaining activity at 100 µM: read-out: residual kinase activity, NEK6
# Excerpt: as §1
# PAK2 = PAK2 (Homo sapiens, UniProt Q13177); experiment: Kinase profiling PAK2; settings: 100 micromolar inhibitor concentration, 100 is no change; for remaining activity at 100 µM: read-out: residual kinase activity, PAK2
# Chain of PAK2 (Q13177 whole entry, species assumed): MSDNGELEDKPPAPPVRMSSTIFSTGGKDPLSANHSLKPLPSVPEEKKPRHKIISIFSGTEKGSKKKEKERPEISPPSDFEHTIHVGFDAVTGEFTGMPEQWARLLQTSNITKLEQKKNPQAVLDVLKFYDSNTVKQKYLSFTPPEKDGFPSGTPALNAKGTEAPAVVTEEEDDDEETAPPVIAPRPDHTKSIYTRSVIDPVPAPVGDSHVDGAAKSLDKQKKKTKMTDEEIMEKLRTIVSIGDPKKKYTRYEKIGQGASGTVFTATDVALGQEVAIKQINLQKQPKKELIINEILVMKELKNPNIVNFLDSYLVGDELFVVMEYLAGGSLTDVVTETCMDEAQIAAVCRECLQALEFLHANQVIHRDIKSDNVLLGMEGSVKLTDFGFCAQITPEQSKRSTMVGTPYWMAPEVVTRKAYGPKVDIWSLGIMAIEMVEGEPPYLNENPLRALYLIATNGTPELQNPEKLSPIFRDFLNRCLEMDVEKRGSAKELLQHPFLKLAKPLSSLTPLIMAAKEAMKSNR
# Excerpt: as §1
# MST2 = molecular target: T3, MST2 (Homo sapiens, UniProt Q13188); experiment: Kinase profiling MST2; settings: 100 micromolar inhibitor concentration, 100 is no change; for remaining activity at 100 µM: read-out: residual kinase activity, MST2
# T3 sequence (Q13188 1-491): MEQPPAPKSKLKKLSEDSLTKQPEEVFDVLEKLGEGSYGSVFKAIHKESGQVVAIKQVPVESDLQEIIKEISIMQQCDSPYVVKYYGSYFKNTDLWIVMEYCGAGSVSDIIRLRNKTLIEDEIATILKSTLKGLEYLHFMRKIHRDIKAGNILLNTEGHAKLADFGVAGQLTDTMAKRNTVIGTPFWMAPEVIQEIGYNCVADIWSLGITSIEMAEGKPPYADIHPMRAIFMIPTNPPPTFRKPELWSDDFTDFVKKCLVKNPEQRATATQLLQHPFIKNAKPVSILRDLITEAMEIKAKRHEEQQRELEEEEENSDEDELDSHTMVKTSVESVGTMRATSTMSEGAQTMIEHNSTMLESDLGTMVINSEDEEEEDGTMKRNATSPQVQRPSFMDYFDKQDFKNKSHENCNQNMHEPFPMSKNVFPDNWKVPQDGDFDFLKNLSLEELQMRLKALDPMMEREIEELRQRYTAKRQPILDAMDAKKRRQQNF
# Excerpt: as §1
# TAK1 = molecular target: T4, TAK1 (Homo sapiens, UniProt O43318); experiment: Kinase profiling TAK1; settings: 100 micromolar inhibitor concentration, 100 is no change; for remaining activity at 100 µM: read-out: residual kinase activity, TAK1
# T4 sequence (O43318 1-303 limits assumed): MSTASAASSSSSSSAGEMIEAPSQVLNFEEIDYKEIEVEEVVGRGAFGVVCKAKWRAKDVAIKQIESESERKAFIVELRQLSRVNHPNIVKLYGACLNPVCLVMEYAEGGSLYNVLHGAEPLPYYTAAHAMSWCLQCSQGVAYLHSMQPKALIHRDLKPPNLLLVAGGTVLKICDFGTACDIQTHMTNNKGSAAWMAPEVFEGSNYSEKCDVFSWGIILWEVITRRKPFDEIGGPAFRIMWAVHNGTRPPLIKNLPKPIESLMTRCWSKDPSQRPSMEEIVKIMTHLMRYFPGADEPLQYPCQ
# T4 sequence (Q15750 437-504 partner limits assumed): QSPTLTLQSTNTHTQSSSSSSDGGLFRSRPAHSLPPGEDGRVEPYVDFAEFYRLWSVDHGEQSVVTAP
# Excerpt: as §1
# OSR1 = OSR1 (Homo sapiens, UniProt O95747); experiment: Kinase profiling OSR1; settings: 100 micromolar inhibitor concentration, 100 is no change; for remaining activity at 100 µM: read-out: residual kinase activity, OSR1
# Excerpt: as §1
# HER4 = HER4 (Homo sapiens, UniProt Q15303); experiment: Kinase profiling HER4; settings: 100 micromolar inhibitor concentration, 100 is no change; for remaining activity at 100 µM: read-out: residual kinase activity, HER4
# Excerpt: as §1
Structure (SMILES),remaining activity at 100 µM (MKK6),remaining activity at 100 µM (ERK2),remaining activity at 100 µM (JNK2),remaining activity at 100 µM (RSK1),"residual kinase activity, AMPK (AMPK)","residual kinase activity, MKK6 (MKK6)","residual kinase activity, ERK2 (ERK2)","residual kinase activity, JNK2 (JNK2)","residual kinase activity, RSK1 (RSK1)","residual kinase activity, ROCK 2 (ROCK 2)","residual kinase activity, PRK2 (PRK2)","residual kinase activity, PKCγ (PKCγ)","residual kinase activity, PKD1 (PKD1)","residual kinase activity, STK33 (STK33)","residual kinase activity, NEK6 (NEK6)","residual kinase activity, PAK2 (PAK2)","residual kinase activity, MST2 (MST2)","residual kinase activity, TAK1 (TAK1)","residual kinase activity, OSR1 (OSR1)","residual kinase activity, HER4 (HER4)",other results
COc1ccc2sc(NC(C)=O)nc2c1 [Compound 03-21],117%,109%,92%,93%,100,,,,,,,,,,,,,,,,remaining activity at 100 µM (ROCK 2): 52%; remaining activity at 100 µM (PRK2): 67%; remaining activity at 100 µM (PKCγ): 103%; remaining activity at 100 µM (PKD1): 59%; remaining activity at 100 µM (STK33): 81%; remaining activity at 100 µM (NEK6): 108%; remaining activity at 100 µM (PAK2): 95%; remaining activity at 100 µM (MST2): 91%; remaining activity at 100 µM (TAK1): 50%; remaining activity at 100 µM (OSR1): 119%; remaining activity at 100 µM (HER4): 94%
CC(=O)Nc1nc2ccccc2s1 [Compound 03-32],,,,,107,85,149,105,86,91,81,94,105,104,92,90,88,76,112,78,
O=C(Nc1nc2cc(O)ccc2s1)c1cccnc1 [Compound 03-33],,,,,91,122,107,92,73,53,85,103,71,70,107,114,73,73,109,48,
O=C(Nc1nc2ccc(O)cc2s1)c1ccccc1 [Compound 03-60],,,,,30,109,82,107,28,11,27,83,47,38,97,94,40,9,82,16,
CC(=O)Nc1nc2cc(C(F)(F)F)ccc2s1 [Compound 03-73],120%,108%,111%,89%,75,,,,,,,,,,,,,,,,remaining activity at 100 µM (ROCK 2): 83%; remaining activity at 100 µM (PRK2): 91%; remaining activity at 100 µM (PKCγ): 106%; remaining activity at 100 µM (PKD1): 83%; remaining activity at 100 µM (STK33): 86%; remaining activity at 100 µM (NEK6): 119%; remaining activity at 100 µM (PAK2): 85%; remaining activity at 100 µM (MST2): 80%; remaining activity at 100 µM (TAK1): 45%; remaining activity at 100 µM (OSR1): 113%; remaining activity at 100 µM (HER4): 110%
